Values quoted from earlier work, collected in patent publication EP2090292A1, “Means and methods for controlling commensales” (B.R.A.I.N. Biotechnology Research and Information Network AG, priority 2008, dated 2009).
“Also recorded” adds a separate entry of the source.

Test system: Gram-positive and Gram-negative bacteria
Details: prior art, Torres et al. (1998); biofilm not assayed

## CC1OC(=O)C(C2OC2C)=CC1O (stereo not shown) [aspyrone, 6-Dihydro-5-hydroxy-6-methyl-3-(3-methyloxiranyl)-2H-pyran-2-one]
  inhibitory activity against Gram-positive and Gram-negative bacteria: weak inhibitory activity; also recorded: weak to negligible activity
